Reference: US20260308152A1, “METHODS OF MAKING 2-AMINO-1-(3-HYDROXY-2,6-DIMETHYLPHENYL)-5,6-DIMETHYL-1H-PYRROLO-[2,3-B]PYRIDINE-3-CARBOXAMIDE, A MYT1 INHIBITOR” (Repare Therapeutics Inc., priority 2022, published 2026)
Values after ≈ are worked out from the molar mass of the structure shown. Marks after values point to notes of the source that are not given here.

Experiments:
Assay type in all cases: physicochemical
[1] = Chiral acid salt screen: approximate solubility of starting material in solvents; conditions: ambient temperature, 3 days
Method: INT 1f salts (50-60 mg) were weighed into 4 ml vials. Solvent (~0.2-1.0 mL) was added to each vial, and the vials were stirred at ambient temperature for 3 days. Additional solvent was added to vials with thick slurries, and additional salts were added to vials with clear solutions.
In this example, the resolution of INT 1g and Compound 1 via chiral salts is summarized.

[2] = Solubility in anisole at various temperatures
Source text: The solubility of racemic INT 1f (recrystallized from anisole) in anisole at various temperatures was investigated (Table 28).
The solubility of (S)-INT 1f/(R)-CSA salt in anisole at various temperatures was also investigated

[3] = Solubility of INT 1b in organic solvents; conditions: most organic solvents (FIG. 1)
Source text: FIG. 1 is a graph illustrating the solubility of INT 1b in organic solvents, including heptane, toluene, xylenes, isopropyl acetate (IPAc), ethyl acetate (EtOAc), methyl ethyl ketone (MEK), methyl t-butyl ether (MTBE), dichloromethane (DCM), methanol (MeOH), ethanol (EtOH), isopropanol (iPrOH), acetonitrile (MeCN), water, 5 M H2SO4, and 1 M H2SO4.

[4] = Aromatic solvent screen: solubility of INT 1f/(R)-CSA salt
Source text: Following the encouraging result employing anisole as the solvent and switching to (R)-CSA to afford the desired diastereomer, the following common aromatic solvents were screened: 1,3-dimethoxybenzene;
2-, 3-, and 4-methyanisoles; o, m, and p-xylenes; and α,α,α-trifluorotoluene (Table 18). […] In addition to anisole, 4-methylanisole and 1,3-dimethoxybenzene also afforded enantioenriched crystalline solids with enantiomeric ratios (e.r.) of 90:10 and 87:13, respectively. However, the highest e.r. was obtained with anisole (92:8).

Row | Approximate Solubility of Starting Material ([1]; 1,4-Dioxane) | Approximate Solubility of Starting Material ([1]; Acetone:water (9:1)) | Approximate Solubility of Starting Material ([1]; Anisole) | Approximate Solubility of Starting Material ([1]; DCM) | Approximate Solubility of Starting Material ([1]; EtOAc) | Approximate Solubility of Starting Material ([1]; EtOH:Heptane (1:1)) | Approximate Solubility of Starting Material ([1]; EtOH) | Approximate Solubility of Starting Material ([1]; MeCN) | Approximate Solubility of Starting Material ([1]; THF) | Approximate Solubility of Starting Material ([1]; Toluene) | SMILES | other results
1 | Very soluble | Soluble | Soluble | Very soluble | Soluble | Soluble | Soluble | Soluble | Very soluble | Soluble | COc1ccc(C)c(-n2c(N)c(C#N)c3cc(C)c(C)nc32)c1C.Cc1ccc(C(=O)O[C@H](C(=O)O)[C@H](OC(=O)c2ccc(C)cc2)C(=O)O)cc1 | 
2 | Soluble | Soluble | Very soluble | Highly soluble | Highly soluble | Soluble | Very soluble | Very soluble | Highly soluble | Very soluble | COc1ccc(C)c(-n2c(N)c(C#N)c3cc(C)c(C)nc32)c1C.O=P1(O)Oc2c(-c3c(C4CCCCC4)cc(C4CCCCC4)cc3C3CCCCC3)cc3ccccc3c2-c2c(c(-c3c(C4CCCCC4)cc(C4CCCCC4)cc3C3CCCCC3)cc3ccccc23)O1 [INT 1f/(S)-TCYP] | 
3 | Highly soluble | Highly soluble | Very soluble | Highly soluble | Very soluble | Soluble | Soluble | Soluble | Highly soluble | Highly soluble | CC(C)c1cc(C(C)C)c(-c2cc3ccccc3c3c2OP(=O)(O)Oc2c(-c4c(C(C)C)cc(C(C)C)cc4C(C)C)cc4ccccc4c2-3)c(C(C)C)c1.COc1ccc(C)c(-n2c(N)c(C#N)c3cc(C)c(C)nc32)c1C [INT 1f/(S)-TRIP] | 
4 | Highly soluble | Very soluble | Very soluble | Highly soluble | Soluble | Soluble | Very soluble | Soluble | Highly soluble | Very soluble | COc1ccc(C)c(-n2c(N)c(C#N)c3cc(C)c(C)nc32)c1C.O=P1(O)Oc2ccc3ccccc3c2-c2c(ccc3ccccc23)O1 | 
5 | Highly soluble | Soluble | Soluble | Highly soluble | Soluble | Soluble | Soluble | Soluble | Highly soluble | Soluble | COc1ccc(C)c(-n2c(N)c(C#N)c3cc(C)c(C)nc32)c1C.O=C(O[C@H](C(=O)O)[C@H](OC(=O)c1ccccc1)C(=O)O)c1ccccc1 [INT 1f/(+)-2,3-Dibenzoyl-D-tartaric Acid] | 

More lines, now with the values behind:

Row | SMILES | Approximate Solubility of Starting Material ([1]; 1,4-Dioxane) | Approximate Solubility of Starting Material ([1]; Acetone:water (9:1)) | Approximate Solubility of Starting Material ([1]; Anisole) | Approximate Solubility of Starting Material ([1]; DCM) | Approximate Solubility of Starting Material ([1]; EtOAc) | Approximate Solubility of Starting Material ([1]; EtOH:Heptane (1:1)) | Approximate Solubility of Starting Material ([1]; EtOH) | Approximate Solubility of Starting Material ([1]; MeCN) | Approximate Solubility of Starting Material ([1]; THF) | Approximate Solubility of Starting Material ([1]; Toluene) | other results
6 | CC1(C)C2CC[C@@]1(CS(=O)(=O)O)C(=O)C2.COc1ccc(C)c(-n2c(N)c(C#N)c3cc(C)c(C)nc32)c1C [INT 1f/(S)-CSA] | Soluble | Highly soluble | Very soluble | Very soluble | Soluble | Soluble | Very soluble | Highly soluble | Very soluble | Highly soluble | 
7 | COc1ccc(C)c(-n2c(N)c(C#N)c3cc(C)c(C)nc32)c1C (racemic) [INT 1f, 2-Amino-1-(3-methoxy-2,6-dimethylphenyl)-5,6-dimethyl-1H-pyrrolo[2,3-b]-pyridine-3-carbonitrile] |  |  |  |  |  |  |  |  |  |  | Solubility in anisole ([2]; racemic, crystal form recrystallized from anisole, 25° C.): 14.01 mg/mL (≈ 43.7 mM); Solubility in anisole ([2]; racemic, crystal form recrystallized from anisole, 30° C.): 17.72 mg/mL (≈ 55.3 mM); Solubility in anisole ([2]; racemic, crystal form recrystallized from anisole, 40° C.): 21.26 mg/mL (≈ 66.4 mM); Solubility in anisole ([2]; racemic, crystal form recrystallized from anisole, 50° C.): 25.99 mg/mL (≈ 81.1 mM); Solubility in anisole ([2]; racemic, crystal form recrystallized from anisole, 60° C.): 46.5 mg/mL (≈ 145 mM)
8 | Cc1cc2c(C(N)=O)c(N)n(-c3c(C)ccc(O)c3C)c2nc1C [Compound 1/Acid d] |  |  | Partially soluble | Partially soluble |  | Partially soluble |  |  |  |  | 
9 | Cc1cc2c(C(N)=O)c(N)n(-c3c(C)ccc(O)c3C)c2nc1C [Compound 1/Acid h] |  | Soluble |  | Partially soluble |  |  | Soluble |  |  |  | 
10 | CC1(C)C2CCC1(CS(=O)(=O)O)C(=O)C2Br.COc1ccc(C)c(-n2c(N)c(C#N)c3cc(C)c(C)nc32)c1C.O | Highly soluble | Highly soluble | Soluble | Highly soluble | Very soluble | Highly soluble | Very soluble | Highly soluble | Highly soluble | Soluble | 
11 | Cc1cc(Br)c(=O)[nH]c1C [INT 1b] |  |  |  |  |  |  |  |  |  |  | solubility in most organic solvents [3]: poor solubility
12 | CC1(C)C2CC[C@]1(CS(=O)(=O)O)C(=O)C2.COc1ccc(C)c(-n2c(N)c(C#N)c3cc(C)c(C)nc32)c1C [INT 1f/(R)-CSA] |  |  |  |  |  |  |  |  |  |  | solubility ([4]; 1,3-dimethoxybenzene and anisole): high solubility; solubility ([4]; 2-, 3-, 4-methyanisole with heating): good solubility; solubility ([4]; other aromatic solvents (xylenes, α,α,α-trifluorotoluene)): poor solubility
13 | Cc1cc2c(C(N)=O)c(N)n(-c3c(C)ccc(O)c3C)c2nc1C [Compound 1/Acid f] |  | Soluble | Soluble | Partially soluble |  | Soluble | Partially soluble | Partially soluble | Soluble |  | 
14 | CC1(C)[C@H]2CC[C@]1(CS(=O)(=O)O)C(=O)C2.COc1ccc(C)c(-n2c(N)c(C#N)c3cc(C)c(C)nc32)c1C [(S)-INT 1f/(R)-CSA, (S)-2-Ammonium-1-(3-methoxy-2,6-dimethylphenyl)-5,6-dimethyl-1H-pyrrolo[2,3-b]-pyridine-3-carbonitrile/(R)-CSA] |  |  |  |  |  |  |  |  |  |  | Solubility in anisole ([2]; salt, 21° C.): 2.39 mg/mL; Solubility in anisole ([2]; salt, 30° C.): 3.78* mg/mL; Solubility in anisole ([2]; salt, 40° C.): 3.37 mg/mL; Solubility in anisole ([2]; salt, 50° C.): 4.20 mg/mL; Solubility in anisole ([2]; salt, 60° C.): 7.29 mg/mL
